According to patent US20100197610A1, “FRUCTOSE 1, 6 BISPHOSPHATE - A NOVEL ANTICONVULSANT DRUG” (Baylor College of Medicine, priority 2007, published 2010):

Assays:
[1] = system: pilocarpine-induced seizures; test: Pilocarpine model of acute seizures; format: in vivo, Sprague Dawley rats
Procedure: All animal experiments were carried out in accordance with the National Institutes of Health guide for the care and use of laboratory animals (NIH publication 8023, revised 1996) and with the approval of the local Animal Use Committee. Unless indicated, all chemicals were obtained from Sigma Chemical Co (St. Louis Mo.). Male, Sprague Dawley rats weighing 50-74 g (young) or 147-309 g (adult) were used in this study. Acute seizures were induced by kainic acid (KA; Ocean Produce Int., Canada), pilocarpine or pentylenetetrazole (PTZ) as previously described (Lian et al 2006). These models were chosen because they initiate seizures by different mechanisms and the seizures have a relatively gradual onset compared to seizures initiated by stimulation. There was no difference in the body weight of the animals receiving the different convulsants. For pilocarpine, kainic acid and PTZ, the mean weights were 219±5 g (range 163-275 g), 215±7 g (range 183-258 g), and 216±13 g (range 147-309 g), respectively. The animals in the drug treatment groups were not different in weight from the animals in the control groups.
After administration of KA (10 mg/kg, ip), pilocarpine (scopolamine methyl bromide 1 mg/kg, s.c followed 15 min later by 300 mg/kg, ip pilocarpine) or PTZ (50 mg/kg, ip) (Lian et al., 2006), animals were continuously monitored for seizure activity for at least 5 h after KA or pilocarpine and for 30 min after PTZ. Behavioral seizures were scored by an investigator blinded to the treatment. Latency to the first wet dog shake after KA, latency to the first forelimb clonus (after pilocarpine, kainic acid or PTZ) and the score and duration of seizures were measured. When at least 1 hour had passed without any head bobbing (for pilocarpine) or any wet dog shakes (for KA), seizures were considered over. Status epilepticus lasting longer than 4 hours (for KA) or 5 hours (for pilocarpine) were assigned 4 and 5 hours for seizure duration. For animals receiving PTZ, the seizure duration was defined as the period of tonic-clonic seizures. EEG recording in the hippocampus was conducted as previously described (Lian et al., 2004). After anesthesia, a recording electrode was placed in a burr hole centered at 3.0 mm posterior to bregma, 1.8 mm lateral to the midline and then lowered 3.0 mm. A ground screw and wire was placed over the frontal region in another burr hole. This assembly was fixed to the skull with dental cement.
Each animal was assigned the score of the most severe seizure observed. The behavioral seizures induced by KA or pilocarpine were scored according to an adjusted version of the scale of Racine (Bough et al., 2002): stage 1, wet dog shakes after KA or trembling after pilocarpine; stage 2, head bobbing and stereotypes; stage 3, unilateral forelimb clonus; stage 4, bilateral forelimb clonus; stage 5, rearing and falling; stage 6, jumping and/or running followed by falling. Death within 24 h was assigned stage 7.
Adult rats received either D-F1,6BP, sodium valproate (VPA, 0.3 g/kg), 2-DG (0.25, 0.5 g/kg) or normal saline (vehicle) intraperitoneally followed 1 h later by one of the convulsants. The dose for VPA was based on experimental evidence that doses from 0.1 to 0.4 g/kg (ip) are effective in animal models (Bough and Eagles, 2001; Manent et al., 2007). Three doses of F1,6BP (0.25, 0.5 and 1 g/kg) were tested with this dosing schedule. Two additional groups were administered F1,6BP (0.5 or 1 g/kg, n=5) after pilocarpine. In this experiment, the F1,6BP was given intraperitoneally at the first behavioral seizure, which was chewing movements of the jaw. Two additional sets of animals were fed the classic ketogenic diet (No. F3666; Bio-Serv, Frenchtown, N.J.). One set of animals was given the diet beginning on postnatal day 22-26 (KD-Yng) and maintained on this diet for 4 weeks. Thus the seizures were tested in this group when the animals had reached approximately the same age (50-54 days) as the majority of the animals tested. […]

[2] = intravenous, rats (Nunes et al., 2003); cited from earlier work
in vivo = test: in vivo; design: species or system rats; conditions: Sprague-Dawley, rat, po
Procedure: Actual levels of FDP were determined by monitoring absorbance of reduced nicotinamide adenine dinucleotide (NADH) and treating the sample with aldolase (EC 4.1.2.13, 45 units mg-1 diluted 1:27 with distilled water), the enzyme which cleaves FDP into dihydroxyacetone phosphate (DAP) and D-glyceraldehyde 3-phosphate (GAP). DAP and GAP are interconverted by the enzyme triosephosphate isomerase (TIM, EC 5.3.3.1, 5290 units mg-1 diluted 1:120 with distilled water). Glycerol-3-phosphate dehydrogenase (GDH, EC 1.1.1.8, 252 units mg-1 diluted 1:100 with distilled water) catalyzes the reduction of DAP by NADH. For the FDP measurements, 1.5 ml of tetraethyl ammonium buffer (TEA, 0.4 mol l-1, pH 7.6 with EDTA 40 mmol l-1) was added to 1 ml of the sample in a 4 ml cuvette. […] After 5 min the absorbance was read 3 times at 340 nm, each reading 3 min apart. The average of these readings is the initial absorbance (Ai). This step removes any DAP or GAP in the sample and determines the baseline absorbance. […] Nine minutes after addition of the aldolase, the final absorbance (Af) was determined by 3 readings at 340 nm, each 6 minutes apart. The concentration of FDP in the sample was proportional to the difference in the initial and final absorbance. […] Levels of FDP in blood were determined per ml, while levels in tissue samples were determined as a function of tissue weight. […]

[3] = 1 g/kg given at first sign of seizure activity after pilocarpine

With `O=C(COP(=O)(O)O)[C@@H](O)[C@H](O)[C@H](O)COP(=O)(O)O` [F1,6BP, Fructose-1,6-bisphosphate] the “latency to forelimb clonus” value [1, 3] was “increase”, the seizure duration [1, 3] was “decrease” and the “progression of the seizures” value ([1]; 1 g/kg given at first sign of seizure activity after pilocarpine, n=5) was “significantly slowed”. For the same compound, the “behavioral or electrographic seizures (hippocampal EEG)” value ([1]; 4 rats pretreated with 1 g/kg) was “no behavioral or electrographic seizures”, the “effect on the seizure parameters” value ([1]; F1,6BP 0.25 g/kg ip 1 h before pilocarpine, n=5) was “no effect” and the “animals with a seizure score ≧3” value ([1]; F1,6BP 0.5 g/kg ip 1 h before pilocarpine) was 3 out of 10. For the same compound, the “animals with a seizure score ≧3” value ([1]; F1,6BP 1 g/kg ip 1 h before pilocarpine) was 2 out of 10, the seizure duration ([1]; pretreated with 0.5 or 1 g/kg) was “significantly decreased” and the seizure score ([1]; pretreated with 0.5 or 1 g/kg) was “significantly decreased”. The “latency to the seizures” value ([1]; the 5 animals with score ≧3 after 0.5 or 1 g/kg pretreatment) was “significantly increased”, the LD50 [2] was 1,068 mg/kg and the concentration at 7 days (in vivo) was 22200 ± 3300 ng/mL. The “FDP levels in the brain” value (in vivo; 7 days) was 0.50 ± 0.024 mg/g.
